The text below walks through data of patent US7473433B2, “Pulmonary delivery of polyene antifungal agents” (priority 2000, dated 2009).

Data set [1] can be described thus: Solubility of polyenes and excipients in single solvents. In kind it is physicochemical. As for the experimental part: The solubility of amphotericin and excipients/additives of interest was determined in various solvents in an attempt to find a solvent system suitable for spray drying (i.e., having a sufficiently high vapor pressure) and capable of dissolving both amphotericin and any added excipients at an extent greater than about 10 mg/mL solvent. Although active agents can be spray-dried as suspensions, having the formulation components dissolved in solution provides resulting particles having a homogeneous composition (i.e., when comparing one particle to another particle)—that is to say, each particle in the composition has approximately the same composition and distribution of formulation components.
Amphotericin B is soluble in water at pHs lower than 3 and higher than 10, but only to a limited extent (0.2 mg/ml) —making the volume of solvent required for spray drying under these conditions too large to be reasonably handled. Thus, the following solubilities were experimentally determined to find a single (non-mixed) solvent system for spray drying representative amphotericin B and nystatin formulations.

The format of data set [2] is physicochemical. The following applies: for % AmB pH 3: MeOH pH 3, ice bath; for % AmB pH 4: MeOH pH 4, ice bath. An excerpt:
The “extent of degradation” of a polyene is the percentage of polyene contained in the dry powder composition determined to be chemically modified from the intact starting material, as determined by a suitable chemical assay (e.g., NMR, HPLC, etc.); 100% of the polyene remaining chemically intact during the spray drying process represents an extent of degradation of 0%.
• Amphotericin B (Spectrum, New Brunswick, N.J.; Alapharma) • Nystatin (Spectrum, New Brunswick, N.J.) • Methanol dehydrated, HPLC grade (EM Industries, Gibbstown, N.J.) • Sodium Hydroxide, 50% (J. T. Baker, Phillipsburg, N.J.) • L-Leucine (Aldrich) • Hydrochloric Acid (J. T. Baker, Phillipsburg, N.J.) • Sodium Deoxycholate (Spectrum, New Brunswick, N.J.) Methods • Reverse Phase-HPLC • RP-HPLC analysis was performed on a Waters 2690HPLC system with a Waters Detector 996 (Skywalker, Inhale No.101232). The system was equipped with either a Vydac C-18 column or an YMC ODC-AQ™ C-18 column. Samples were eluted with a gradient mobile phases consisted of 10 mM sodium acetate buffer (mobile phase A) at pH 5 and CAN (mobile phase B). The flow rate was maintained at 1.0 ml/min, the detector wavelength was 383 nm, and the injection volume was 30μL (microliter). Stability Samples
(§1) In an attempt to reduce the extent of chemical degradation of amphotericin, while also finding solution conditions under which amphotericin B was reasonably soluble (e.g., to an extent greater than about 1 mg/mL), solubility experiments were conducted. The experiments were performed at room temperature for the first 2 hour while adjusting for solution pH. After the amphotericin B was completely dissolved, the samples were transferred to a 4° C. refrigerator for further chemical stability analysis. Table 7 summarizes the formulation details and apparent solubilities at specific pH conditions.
Solutions were prepared as follows. Amphotericin B (AmB) was added to MeOH (3 mg AmB/mL) at either room temperature or in an ice bath. […] The chemical stability of AmB was determined by an HPLC assay as a function of time over 24 hours.

The conditions of data set [3]: cited from earlier work.
Data set [4] is described as follows: Apparent solubility of AmB in pH-adjusted methanol. Format: physicochemical. The following applies: for Solubility: 0 °C, MeOH. As to the method: as §1
Additional solubility of amphotericin B and stability of the representative formulation, R0140, was investigated. The solubility of amphotericin at pH 5 and at pH 4.7 was investigated; additionally, the chemical stability of amphotericin B at pH 4.8 was further examined. In these experiments, samples were placed in an ice bath during the formulation preparation.

In brackets after ≈: the same amount, converted by molar mass. Like-named read-outs stand apart in the source and are kept apart here.

As to `C[C@@H]1[C@H](O)[C@@H](C)/C=C/C=C/CC/C=C/C=C/C=C/C=C/C(O[C@H]2O[C@H](C)[C@@H](O)[C@H](N)[C@@H]2O)CC2O[C@](O)(CC(O)C(O)CCC(O)CC(O)CC(O)CC(=O)O[C@H]1C)CC(O)C2C(=O)O` (stereo partly drawn) [Nystatin], the Solubility is on record as 0.1 mg compound/g solvent in data set [1] (Acetone); 0.7 mg compound/g solvent in data set [1] (Chloroform); 1.1 mg compound/g solvent in data set [1] (DI Water); 0.8 mg compound/g solvent in data set [1] (Ethanol); 0.1 mg compound/g solvent in data set [1] (Ethyl Ether); 0.0 mg compound/g solvent in data set [1] (Hexane). Besides, the Solubility in data set [1] (IP Acetate) worked out at 0.1 mg compound/g solvent; in data set [1] (IPA), 0.1 mg compound/g solvent; in data set [1] (Isobutyl Alcohol) it was 0.5 mg compound/g solvent; in data set [1] (Meth. Chloride), 3.9 mg compound/g solvent; in data set [1] (Methanol), 11.0 mg compound/g solvent; in data set [1] (Pet. Ether), 0.0 mg compound/g solvent. Besides, in data set [1] (THF), the Solubility is listed as 1.6 mg compound/g solvent.

The solubility is the dissolved amount per volume that the medium holds. Consider `C[C@@H]1[C@H](O)[C@@H](C)/C=C/C=C/C=C/C=C/C=C/C=C/C=C/[C@H](O[C@@H]2O[C@H](C)[C@@H](O)[C@H](N)[C@@H]2O)C[C@@H]2O[C@](O)(C[C@@H](O)C[C@@H](O)[C@H](O)CC[C@@H](O)C[C@@H](O)CC(=O)O[C@H]1C)C[C@H](O)[C@H]2C(=O)O` [Amphotericin B], for which the “% AmB pH 3” value is recorded as 93% in data set [2] (4 hr), 90% in data set [2] (18.5 hr), 85% in data set [2] (26 hr) and 95% in data set [2] ([…]). The “% AmB pH 4” value in data set [2] (1 hr) was 94%; in data set [2] (4 hr), 96%; in data set [2] (18.5 hr), 97%; in data set [2] (26 hr), 93%. Also, the “% AmB” value in data set [2] (MeOH pH 4.8, in ice bath, 4 hr) is listed as 99%; in data set [2] (MeOH pH 4.8, in ice bath, 6 hr), 97%; in data set [2] (MeOH pH 4.8, in ice bath, 8 hr), 94%; in data set [2] (MeOH pH 4.8, in ice bath, 24 hr) it was 97%; in data set [2] (MeOH pH 4.8, in ice bath, […]), 97%; in data set [2] (MeOH pH 4.8, room temperature, 4 hr), 85%. Also, the “% AmB” value in data set [2] (MeOH pH 4.8, room temperature, 6 hr) is on record as 83%; in data set [2] (MeOH pH 4.8, room temperature, 8 hr), 84%; in data set [2] (MeOH pH 4.8, room temperature, 24 hr), 78%; in data set [2] (MeOH pH 4.8, room temperature, […]), 89%. The “AmB (%)” value in data set [2] (MeOH solution, T = 8 hr (4° C. after first 2 hr)) was “about 92%”; in data set [2] (MeOH, pH 4.8, in ice, during formulation preparation), 97%. Further, the “Main Peak %” value in data set [2] (MeOH, pH 4.8, in ice) is on record as 92.0%. For the same compound, the Solubility in water result in data set [3] (water at pH 6 to 7) is “insoluble”; in data set [3] (water at pHs lower than 3 and higher than 10) it was 0.2 mg/mL (≈ 0.216 mM). The Solubility in data set [4] (pH 4.7, organic solvent or mixture, pH 4.7, in ice) was 3400 µg/mL (≈ 3.68 mM); in data set [4] (pH 5, organic solvent or mixture, pH 5.0, in ice) it was about 3000 µg/mL (≈ 3.25 mM). In data set [4] (organic solvent or mixture, in MeOH, room temperature, pH of the formulation 4.4, 6.9 or 9.6), the solubility at 2 h stood at 2900 µg/mL (≈ 3.14 mM).
